Drawing on the Deep4Chem optical property database, this text covers emission maximum for 35 compounds.

The nature of the first data set: solvent given as SMILES. The conditions noted are these: in CO.
In the case of `O=C1CCCC2=C1CC1=C(CCCC1=O)N2NC(=O)c1ccc(O)cc1`, the emission maximum amounted to 449 nm.

`CCc1c(C)c2n(c1C)[B-](F)(F)[N+]1=C(c3ccc[nH]3)c3ccccc3C1=C2` gave an emission maximum of 628 nm.

As for `CCN(CC)c1ccc(-c2nc3c(c4c2-c2ccccc2CC4)-c2ccccc2CC3)cc1`, the emission maximum is listed as 461 nm.

Regarding `Cc1cc(=O)c2ccc(N)cc2o1`, the emission maximum was 421 nm.

The same data set, now with this note: in CS(C)=O.
`N#Cc1cc2ccc(O)cc2oc1=O` yielded an emission maximum of 401 nm.

For `CC(C)[Si]1(C(C)C)c2cc(C#N)ccc2-c2ccc(N(C)C)cc21`, the emission maximum worked out at 473 nm.

In turn, `CCC1(CC)c2cc(C=O)ccc2-c2ccc(N(C)C)cc21` showed an emission maximum of 532 nm.

`CCCCCn1c2ccccc2c(=O)c2ccccc21` yielded an emission maximum of 414 nm.

In turn, `C(=C\c1ncc2ccccc2n1)/c1ccc(N(c2ccccc2)c2ccccc2)cc1` registered an emission maximum of 547 nm.

Compound `CCN(CC)c1ccc(-c2nc3c(c4c2-c2ccccc2CC4)-c2ccccc2CC3)cc1` showed an emission maximum of 470 nm.

In turn, `Cc1cc(=O)c2ccc(N)cc2o1` returned an emission maximum of 402 nm.

Still in this data set, the particulars now being: in Cc1ccccc1.
For the compound `CCN1/C(=C\c2c(-c3ccc(N(C)C)cc3)c(=O)c2=O)C=Cc2ccccc21`, the emission maximum was found to be 434 nm.

In turn, `Cc1cccc2c3ccccc3n(-c3ccc(-c4c(-c5ccccc5)c(C#N)c(C#N)c(-c5ccccc5)c4-c4ccc(-n5c6ccccc6c6cccc(C)c65)cc4)cc3)c12` had an emission maximum of 440 nm.

Compound `CC(C)(C)c1ccc2c(c1)c1cc(C(C)(C)C)ccc1n2-c1ccc(-c2nc3cc(C#N)c(C#N)cc3nc2-c2ccc(-n3c4ccc(C(C)(C)C)cc4c4cc(C(C)(C)C)ccc43)cc2)cc1` showed an emission maximum of 544 nm.

Regarding `CCCCCCCCOC(=O)c1ccc(-c2cc3ccc4cc(-c5ccc(C(=O)OCCCCCCCC)cc5)cc5ccc(c2)c3c45)cc1`, the emission maximum was found to be 421 nm.

The compound `Cc1ccc(-n2c(-c3cccc4cc[nH]c34)nc3c4ccccc4c4ccccc4c32)cc1` had an emission maximum of 377 nm.

`Cc1ccc2c(c1)C1(c3ccccc3-c3ccccc31)c1cc(C)ccc1N2c1ccc2c(c1)Sc1ccccc1P2(=O)c1ccccc1` (stereo unspecified) had an emission maximum of 454.61 nm.

The compound `CCc1c(C)c2n(c1C)[B-](F)(F)[N+]1=C(c3ccc[nH]3)c3ccccc3C1=C2` had an emission maximum of 635 nm.

`CC(C)c1cc(C(C)C)c(B2c3cc(-n4c5ccccc5c5ccccc54)ccc3N(c3ccccc3)c3ccc(-n4c5ccccc5c5ccccc54)cc32)c(C(C)C)c1` registered an emission maximum of 442.52 nm.

`COc1ccc(-c2c3ccccc3c3n2[B-](F)(F)[N+]2=Cc4c5ccccc5c(-c5ccc(OC)cc5)n4[B-](F)(F)[N+]2=C3)cc1`: the emission maximum was 616 nm.

As for `COc1ccc(C2=C(c3ccc(-c4ccccc4)cc3)C(c3ccccc3)=[N+]3C2=Nc2c(-c4ccc(OC)cc4)c(-c4ccc(-c5ccccc5)cc4)c(-c4ccccc4)n2[B-]3(F)F)cc1`, the emission maximum is 716 nm.

As to `CCN(CC)c1ccc(-c2nc3c(c4c2-c2ccccc2CC4)-c2ccccc2CC3)cc1`, the emission maximum is listed as 437 nm.

The same data set, now with this note: in ClC(Cl)Cl.
`N#Cc1cc2ccc(O)cc2oc1=O` gave an emission maximum of 408 nm.

In turn, `CN(C)c1ccc(-c2nc(C#N)c(C#N)n2C)cc1` had an emission maximum of 437 nm.

As for `COc1cc(/C=C/c2nc3ccccc3s2)c(OC)cc1/C=C/c1nc(C)nc(C)n1`, the emission maximum is 494 nm.

For `O=C1CCCC2=C1CC1=C(CCCC1=O)N2NC(=O)c1ccc(O)cc1`, the emission maximum is 444 nm.

Turning to `C[Si](C)(C)c1sc([Si](C)(C)C)c2c1sc1c3sc4c(sc5c4sc4c([Si](C)(C)C)sc([Si](C)(C)C)c45)c3sc12`, the emission maximum came out at 442 nm.

Take `CCCCn1c2ccc(-c3ccccc3)cc2c2ccc3c4cc(-c5ccccc5)ccc4n(CCCC)c3c21`: the emission maximum was found to be 414 nm.

In the case of `COc1ccc(O[B-]2(Oc3ccc(OC)cc3)n3c(C)cc(C)c3C(c3ccc(I)cc3)=C3C(C)=CC(C)=[N+]32)cc1`, the emission maximum was 518.49 nm.

On to `Cc1cc(=O)c2ccc(N)cc2o1`, for which the emission maximum is given as 380 nm.

Staying with this data set, now noted: in ClCCl.
In the case of `Cc1ccc(C2=Nc3cccc4[n+]3[B-](F)(O2)OC(c2ccc(C)cc2)=N4)cc1`, the emission maximum turned out to be 457 nm.

`CCN1/C(=C\c2c(-c3ccc(N(C)C)cc3)c(=O)c2=O)C=Cc2ccccc21` had an emission maximum of 588 nm.

In turn, `COC(=O)c1nc2c(N(C)C)nc(N)nc2n1Cc1ccccc1` yielded an emission maximum of 393 nm.

The compound `COC(=O)/C=C/C1=CC2=C(c3c(C)cc(C)cc3C)c3cccn3[B-](F)(F)[N+]2=C1` gave an emission maximum of 570 nm.

Take `COc1ccc(-c2ccc(-c3cc(-c4ccccn4)nc(-c4ccccn4)c3)cc2)cc1`: the emission maximum is listed as 403 nm.

As for `CC(C)[Si]1(C(C)C)c2cc(C#N)ccc2-c2ccc(N(C)C)cc21`, the emission maximum is 442 nm.

`C[Si](C)(C)C#Cc1cc(C#C[Si](C)(C)C)c2ccc3c(C(=O)c4ccccc4)cc(C#C[Si](C)(C)C)c4ccc1c2c43`: the emission maximum came to 467 nm.

As to `COc1ccc2c(c1)CCc1c(-c3ccccc3)c3n(c1-2)[B-](F)(F)[N+]1=C2C=NC=CN2[B-](F)(F)[N+]1=C3`, the emission maximum is 576 nm.

`COc1cc(/C=C/c2nc3ccccc3s2)c(OC)cc1/C=C/c1nc(C)nc(C)n1` returned an emission maximum of 496 nm.

Turning to `O=C1CCCC2=C1CC1=C(CCCC1=O)N2NC(=O)c1ccc(O)cc1`, the emission maximum was 436 nm.

`COc1ccc(N(c2ccc(OC)cc2)c2ccc3c(c2)C2(c4cc(N(c5ccc(OC)cc5)c5ccc(OC)cc5)ccc4C=C3)c3ccccc3-c3ccccc32)cc1` came in with an emission maximum of 483 nm.

Regarding `CCc1c(C)c2n(c1C)[B-](F)(F)[N+]1=C(c3ccc[nH]3)c3ccccc3C1=C2`, the emission maximum is 634 nm.

As for `CC(C)c1cc(C(C)C)c(B2c3cc(-n4c5ccccc5c5ccccc54)ccc3N(c3ccccc3)c3ccc(-n4c5ccccc5c5ccccc54)cc32)c(C(C)C)c1`, the emission maximum amounted to 442.52 nm.

`CCC1(CC)c2cc(C=O)ccc2-c2ccc(N(C)C)cc21`: the emission maximum is recorded as 491 nm.

The compound `Cn1cc(-c2nc3ccccc3nc2C#Cc2ccccc2)c2ccccc21` returned an emission maximum of 510 nm.

In turn, `COc1ccc(-c2c3ccccc3c3n2[B-](F)(F)[N+]2=Cc4c5ccccc5c(-c5ccc(OC)cc5)n4[B-](F)(F)[N+]2=C3)cc1` registered an emission maximum of 614 nm.

`C(=C\c1ncc2ccccc2n1)/c1ccc(N(c2ccccc2)c2ccccc2)cc1` registered an emission maximum of 520 nm.

On to `CCN(CC)c1ccc(-c2nc3c(c4c2-c2ccccc2CC4)-c2ccccc2CC3)cc1`, for which the emission maximum is recorded as 449 nm.

The compound `Clc1ccccc1N1c2sc3ccccc3c2Sc2c1sc1ccccc21` returned an emission maximum of 541 nm.

Still in this data set, the particulars now being: in O.
`N#Cc1cc2ccc(O)cc2oc1=O` came in with an emission maximum of 410 nm.

Compound `O=C(O)C1=C/C(=C/C=[N+]2/c3cc(O)c(C[C@@H]4O[C@H](CO)[C@@H](O)C(O)[C@H]4O)cc3C[C@H]2C(=O)O)C[C@H](C(=O)O)N1` (stereo partly specified) showed an emission maximum of 641 nm.

In turn, `CCCCCn1c2ccccc2c(=O)c2ccccc21` returned an emission maximum of 428 nm.

In turn, `CN(C)c1ccc2c(-c3ccc(C(=O)[O-])cc3C(=O)[O-])c3ccc(=[N+](C)C)cc-3oc2c1` yielded an emission maximum of 578 nm.

In turn, `Cc1cc(=O)c2ccc(N)cc2o1` registered an emission maximum of 435 nm.

The data set is the same for the next values; noted with them: in O=P(c1ccccc1)(c1ccccc1)c1ccc2oc3ccc(P(=O)(c4ccccc4)c4ccccc4)cc3c2c1.
As for `Cc1cccc2c3ccccc3n(-c3ccc(-c4c(-c5ccccc5)c(C#N)c(C#N)c(-c5ccccc5)c4-c4ccc(-n5c6ccccc6c6cccc(C)c65)cc4)cc3)c12`, the emission maximum is given as 450 nm.

The data set is the same for the next values; noted with them: in OCCO.
On to `O=C(O)C1=C/C(=C/C=[N+]2/c3cc(O)c(C[C@@H]4O[C@H](CO)[C@@H](O)C(O)[C@H]4O)cc3C[C@H]2C(=O)O)C[C@H](C(=O)O)N1` (stereo partly specified), for which the emission maximum is given as 608 nm.

The same data set, now with this note: in [2H]O[2H].
On to `O=C(O)C1=C/C(=C/C=[N+]2/c3cc(O)c(C[C@@H]4O[C@H](CO)[C@@H](O)C(O)[C@H]4O)cc3C[C@H]2C(=O)O)C[C@H](C(=O)O)N1` (stereo partly specified), for which the emission maximum turned out to be 641 nm.

Staying with this data set, now noted: in c1cc(-c2cccc(-n3c4ccccc4c4ccccc43)c2)cc(-n2c3ccccc3c3ccccc32)c1.
For the compound `CC(C)c1cc(C(C)C)c(B2c3cc(-n4c5ccccc5c5ccccc54)ccc3N(c3ccccc3)c3ccc(-n4c5ccccc5c5ccccc54)cc32)c(C(C)C)c1`, the emission maximum came out at 452 nm.

Staying with this data set, now noted: in c1ccccc1.
As for `CC(C)[Si]1(C(C)C)c2cc(C#N)ccc2-c2ccc(N(C)C)cc21`, the emission maximum is listed as 422 nm.

`CCC1(CC)c2cc(C=O)ccc2-c2ccc(N(C)C)cc21` showed an emission maximum of 437 nm.

`O=C1c2ccccc2-c2ccccc21` showed an emission maximum of 485 nm.
